The series can be described thus: Recrystallization of methionine in the presence of additives (procedure of Example 1): amount of foam and bulk density. As to conditions: bulk density of dried methionine; additive concentration 400 ppm. The series is classed as physicochemical. As to the method:
60 g of methionine, 305 g of water and 35 g of crude methionine filtrate were introduced into a flask and circulated via a heat exchanger by pumping at a temperature of 40° C. As a result of the potassium carbonate present in the crude methionine filtrate, the potassium ion concentration was ca. 7 g/kg. A solution, heated to 90° C., of 150 g of methionine in 990.5 ml of water and 109.5 g of crude methionine filtrate was added to this suspension at a rate of 18 ml/min, during which the temperature of the initial charge of suspension was kept at 40° C. After adding 650 ml of the hot solution, 500 ml of suspension were removed and then a further 500 ml of the hot solution were metered in at a rate of 18 ml/min. The resulting suspension was discharged, the amount of foam was determined, and the methionine was filtered off and washed with 300 ml of acetone. After drying the methionine, the bulk density was determined.
The recrystallization experiments were carried out in the presence of the following additives, the stated concentration being established by adding the additive to both starting solutions/suspensions. The concentration data give the total active ingredient content of the additive without water based on the total mass of the solution or suspension. Additive 1 was an aqueous mixture of antifoam and crystallization additive according to EP […] […]

“polyethoxylated (20 EO) sorbitan tristearate [Additive 24]”: the Bulk density is 616 g/L.

For the origin of these results see patent US9464045B2, “Process for the preparation of methionine” (EVONIK DEGUSSA GmbH, priority 2012, dated 2016).
